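The compound was tested at five concentrations on cells cultured in 96-well plates, with a 48-hour exposure period. At the GI50, growth is halved.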 Calls of active or inactive are those of the source. No stated cut-off is given here; in the data, active = GI50 up to about 1.1 µM and inactive = higher.
Experiments:
Test in all cases: inhibition of tumour cell growth, NCI panel, 48 h
[1] = test system: SK-MEL-28
[2] = test system: SF-539
[3] = test system: HCC 2998
[4] = test system: A549
[5] = test system: SK-MEL-2
[6] = test system: 786-0
[7] = test system: HCT-116
[8] = test system: MOLT-4
[9] = test system: RXF 393
[10] = test system: SK-MEL-5
[11] = test system: HOP-92
[12] = test system: NCI-H226
[13] = test system: NCI-H23
[14] = test system: Malme-3M
[15] = test system: CAKI-1
[16] = test system: OVCAR-3
[17] = test system: SNB-19
[18] = test system: BT-549
[19] = test system: MDA-N
[20] = test system: T47D

Measured: GI50

Oc1cc(CN2CCOCCOCCOCCOCC2)c(O)cc1CN1CCOCCOCCOCCOCC1
inactive: [1] 24 µM | [2] > 100 µM | [3] > 100 µM | [4] > 100 µM | [5] > 50.7 µM | [6] 27.2 µM | [7] 22.9 µM | [8] 24.3 µM | [9] 23.8 µM | [10] > 61.2 µM | [11] 21.2 µM | [12] > 61.5 µM | [13] > 78.5 µM | [14] > 10 µM | [15] 18.1 µM | [16] 61.8 µM | [17] > 100 µM

CC(=O)c1ccc2c(c1)oc(=O)n2CCN(C)C
inactive: [1] > 100 µM | [2] > 100 µM | [5] > 100 µM | [6] > 100 µM | [7] > 100 µM | [8] > 100 µM | [9] > 100 µM | [12] > 100 µM | [13] > 100 µM | [14] 2.02 µM | [15] > 100 µM | [16] > 100 µM | [18] > 100 µM

COc1cccc2c1CCc1ccccc1CC2=O
inactive: [1] > 100 µM | [2] > 100 µM | [3] > 100 µM | [4] > 100 µM | [5] > 100 µM | [6] > 100 µM | [7] > 100 µM | [8] > 100 µM | [9] > 100 µM | [10] > 100 µM | [11] > 100 µM | [12] > 100 µM | [13] > 100 µM | [14] > 100 µM | [15] > 100 µM | [16] > 100 µM | [17] > 100 µM

O=C(N/C(=C\c1ccc(/C=C(\NC(=O)c2ccccc2)c2nc3ccccc3s2)cc1)c1nc2ccccc2s1)c1ccccc1
inactive: [1] 11.1 µM | [2] 2.14 µM | [3] 14.7 µM | [4] 13.5 µM | [5] 6.62 µM | [6] 1.82 µM | [7] 8.2 µM | [8] 4.99 µM | [9] 17.7 µM | [10] 4.88 µM | [11] 12.5 µM | [12] 19.1 µM | [13] 11.6 µM | [14] 11.9 µM | [15] 14.9 µM | [16] 2.78 µM | [17] 4.09 µM

Nc1nc2c(ncn2C2C=CC(COS(N)(=O)=O)C2)c(=O)[nH]1 (stereo unspecified)
inactive: [1] > 100 µM | [2] > 100 µM | [19] > 100 µM | [3] > 100 µM | [4] > 100 µM | [5] > 100 µM | [6] > 100 µM | [7] > 100 µM | [8] > 100 µM | [9] > 100 µM | [10] > 100 µM | [11] > 100 µM | [20] > 100 µM | [12] > 100 µM | [13] > 100 µM | [14] > 100 µM | [15] > 100 µM | [16] > 100 µM | [17] > 100 µM

N=C(N)NS(=O)(=O)c1ccc(NNc2c3ccccc3nc3c(C(=O)Nc4ccc(S(=O)(=O)Nc5ncccn5)cc4)cccc23)cc1
inactive: [1] 55.1 µM | [2] 35.4 µM | [19] 49.7 µM | [3] 50.8 µM | [4] 47.8 µM | [5] 50.4 µM | [6] 31.6 µM | [7] 28.4 µM | [8] 38.9 µM | [9] 29 µM | [10] 26.6 µM | [11] 67 µM | [20] 39 µM | [13] 35.3 µM | [14] 22.1 µM | [15] 37.8 µM | [16] 38.4 µM | [17] 50.1 µM

Source: ChEMBL document CHEMBL1201862, “PubChem BioAssay data set” (2004)
